# How the values were obtained:
# [1] = system: BV-2; assay: Antiinflammatory activity in mouse BV2 cells assessed as inhibition of LPS-induced nitric oxide production pretreated for 24 hrs followed by LPS-stimulation for 24 hrs by Griess assay; assay type: functional, cell-based
# [2] = molecular target: T1, Tyrosine-protein phosphatase non-receptor type 1 (Homo sapiens) (UniProt P18031); assay: Inhibition of recombinant human GST-tagged PTP1B expressed in expressed in Escherichia coli BL21 cells at 10 uM pre-incubated for 5 mins before pNPP substrate addition and further incubated for 30 mins relative to untreated control
# T1 sequence (whole entry): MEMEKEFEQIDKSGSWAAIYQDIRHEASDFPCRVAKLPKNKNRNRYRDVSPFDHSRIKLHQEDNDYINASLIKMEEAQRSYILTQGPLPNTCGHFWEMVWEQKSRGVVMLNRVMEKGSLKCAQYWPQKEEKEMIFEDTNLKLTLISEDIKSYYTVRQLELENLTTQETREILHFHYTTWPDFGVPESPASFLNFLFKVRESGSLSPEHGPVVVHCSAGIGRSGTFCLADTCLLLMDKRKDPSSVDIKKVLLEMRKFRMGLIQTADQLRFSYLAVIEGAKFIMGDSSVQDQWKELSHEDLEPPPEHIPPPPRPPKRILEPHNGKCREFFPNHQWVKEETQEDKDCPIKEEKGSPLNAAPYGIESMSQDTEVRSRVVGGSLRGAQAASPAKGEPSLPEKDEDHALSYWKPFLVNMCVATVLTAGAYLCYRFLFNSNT
# [3] = system: HCT-116; assay: Cytotoxicity in human HCT116 cells assessed as reduction in cell viability incubated for 72 hrs by MTT assay; assay type: functional, cell-based; settings: HCT-116, 72 h
# [4] = system: HepG2; assay: Cytotoxicity in human HepG2 cells assessed as reduction in cell viability incubated for 72 hrs by MTT assay; assay type: functional, cell-based; settings: HepG2, 72 h
# [5] = system: BGC-823; assay: Cytotoxicity in human BGC823 cells assessed as reduction in cell viability incubated for 72 hrs by MTT assay; assay type: functional, cell-based; settings: BGC-823, 72 h
# [6] = system: A549; assay: Cytotoxicity in human A549 cells assessed as reduction in cell viability incubated for 72 hrs by MTT assay; assay type: functional, cell-based; settings: A549, 72 h
# [7] = system: MCF7; assay: Cytotoxicity in human MCF7 cells assessed as reduction in cell viability incubated for 72 hrs by MTT assay; assay type: functional, cell-based; settings: MCF7, 72 h
IC50 [1] [µM],inhibition [2] [%],Compound,IC50 [3] [µM],IC50 [4] [µM],IC50 [5] [µM],IC50 [6] [µM],IC50 [7] [µM]
> 10,-0.5,C=C(C)[C@H]1CC[C@@](C)(O)[C@@H]1/C=C/C(C)=C/[C@@H]1C[C@@]2([C@H](OC)O1)[C@H](CCCO)/C(=C(/C)C=O)CC[C@]2(C)O,> 10,> 10,> 10,> 10,> 10
> 10,-1.8,C=C(C)[C@@H]1CC[C@](C)(O)[C@H]1/C=C/C(C)=C/[C@@H]1C[C@@]2([C@H](OC)O1)[C@H](CCCO)/C(=C(\C)C=O)CC[C@]2(C)O,> 10,> 10,> 10,> 10,> 10
> 10,32.9,C=C(C)[C@H]1CC[C@@](C)(O)[C@@H]1/C=C/C(C)=C/[C@@H]1C[C@@]2([C@H](OCC)O1)[C@H](CCCO)/C(=C(\C)C=O)CC[C@]2(C)O,> 10,> 10,> 10,> 10,> 10
> 10,33.4,C=C(C)[C@@H]1CC[C@](C)(O)[C@H]1/C=C/C(C)=C/[C@@H]1C[C@@]23[C@H](OCCC[C@@H]2/C(=C(\C)C=O)CC[C@]3(C)O)O1,> 10,> 10,> 10,> 10,> 10
> 10,24.8,C=C(C)[C@H]1CC[C@@](C)(O)[C@@H]1/C=C/C(C)=C/[C@@H]1C[C@@]23[C@H](OCCC[C@@H]2/C(=C(/C)C=O)CC[C@]3(C)O)O1,> 10,> 10,> 10,> 10,> 10
> 10,23.5,C=C(C)[C@@H]1CC[C@](C)(O)[C@H]1/C=C/C(C)=C/[C@@H]1C[C@@]2([C@H](OC)O1)[C@H](CCCO)/C(=C(/C)C=O)CC[C@]2(C)O,> 10,> 10,> 10,> 10,> 10
> 10,15.2,C=C(C)[C@H]1CC[C@@](C)(O)[C@@H]1/C=C/C(C)=C/[C@@H]1C[C@@]2([C@H](OC)O1)[C@H](CCCO)/C(=C(\C)C=O)CC[C@]2(C)O,> 10,> 10,> 10,> 10,> 10
> 10,26.4,C=C(C)[C@H]1CC[C@@](C)(O)[C@@H]1/C=C/C(C)=C/[C@@H]1C[C@@]23[C@H](OCCC[C@@H]2/C(=C(\C)C=O)CC[C@]3(C)O)O1,> 10,> 10,> 10,> 10,> 10
> 10,16.5,C=C(C)[C@@H]1CC[C@](C)(O)[C@H]1/C=C/C(C)=C/[C@@H]1C[C@@]23[C@H](OCCC[C@@H]2/C(=C(/C)C=O)CC[C@]3(C)O)O1,> 10,> 10,> 10,> 10,> 10

# — ChEMBL document CHEMBL4339246, “Iridal-Type Triterpenoids with a Cyclopentane Unit from the Rhizomes of Belamcanda chinensis” (J Nat Prod, 2019)
